Results taken from patent US7416741B2, “Copper lowering treatment of inflammatory and fibrotic diseases” (The Regents of the University of Michigan, priority 2002, dated 2008).

Key:
[1] = test system: Wilson's disease patients; conditions: cited from earlier work
[2] = Solubility and stability of TM salts; conditions: other salts of TM
Text: Thus, other salts have been prepared and evaluated for solubility, stability and anticopper activity.

[3] = In vitro copper complexing studies; conditions: compared with ammonium salt of TM
[4] = test system: hAPP tg mice; conditions: pharmacologic treatment of hAPP tg mice; cited from earlier work
[5] = test system: Wilson's disease patients; conditions: at cupruresis of 2-3 mg
Experimental: Ingestion of copper is about 1 mg/day, with obligatory, non-urine losses of about 0.5 mg.

[6] = test system: cancer patients; conditions: cited from earlier work
[7] = test system: bleomycin mouse model; conditions: in vivo; cited from earlier work
[8] = therapeutic dose 1,000-2,000 mg/day

CC(C)(S)[C@@H](N)C(=O)O [penicillamine]
patients developing initial hypersensitivity syndrome ([1]; human, in vivo): about a quarter to a third of patients

CC[N+](CC)(CC)CC.CC[N+](CC)(CC)CC.[S]=[Mo](=[S])([S-])[S-] [tetraethyl TM]
solubility in water [2]: suitable solubility in water | in vitro copper complexing [3]: behave similarly to ammonium salt of TM

CC(=O)[O-].CC(=O)[O-].[Zn+2] [zinc, zinc acetate]
copper balance induced ([1]; Wilson's patients, average): −0.35 mg daily | time to achieve intestinal metallothionein induction and a negative copper balance ([1]; Wilson's patients): approximately two | time to bring urine copper and nonceruloplasmin plasma copper down to subtoxic levels ([1]; zinc therapy): six

Oc1c(I)cc(Cl)c2cccnc12 [clioquinol]
amyloid pathology [4]: prevented

NCCNCCNCCN [trientine]
patients with proteinuria ([1]; after several weeks of use): about 20% | cupruresis after the first few weeks of therapy [1, 8]: 2 to 3 mg | cupruresis, initial [1, 8]: 4 to 5 mg | negative copper balance [5]: 1.5 to 2.5 mg/day

bleomycin
patients developing pulmonary fibrosis [6]: about 3%

C[N+](C)(C)CCO.C[N+](C)(C)CCO.[SH-].[SH-].[S]=[Mo]=[S] [choline TM]
in vitro copper complexing [3]: behave similarly to ammonium salt of TM

CC(C)Cc1ccc(C(C)C(=O)O)cc1 (centres unmarked) [ibuprofen]
amyloid pathology [4]: prevented

Cc1ccc(=O)n(-c2ccccc2)c1 [perfenidone]
efficacy in the bleomycin mouse model [7]: effective in the bleomycin mouse model

CCC[N+](CCC)(CCC)CCC.CCC[N+](CCC)(CCC)CCC.[S]=[Mo](=[S])([S-])[S-] [TPTM, tetrapropyl tetrathiomolybdate]
solubility in water [2]: suitable solubility in water | in vitro copper complexing [3]: behave similarly to ammonium salt of TM
